Data published in patent publication US7470708B2, “Acidic quinoline derivatives and their use for the prevention and/or treatment of hyperglycaemia-related pathologies” (Merck Patent Gesellschaft mit Beschraenkter Haftung, priority 2003, dated 2008).

Tests used:
insulin secretion = assay: Insulin secretion test; type: cell-based; conditions: concentration of test compound 10^−5 M
From the text: According to the method described in Endocrinology, 1992 vol. 130 (1) pp. 167-178
• C corresponds to the concentration of test compound according to the invention INS. SEC. corresponds to the percentage of insulin secretion.

N0STZ rats = assay: Antidiabetic activity in N0STZ rats (non-insulin-dependent diabetes induced by neonatal steptozotocin); type: in vivo; conditions: N0 STZ rat, oral, percentage change in glycaemia on D4 relative to D0
Procedure: Study of the Antidiabetic Activity in N0STZ Rats
The antidiabetic activity of the compounds of the formula (I) via the oral route, on an experimental model of non-insulin-dependent diabetes induced in rats by means of steptozotocin, was determined as follows.
The model of non-insulin-dependent diabetes is obtained in the rats by means of a neonatal injection (on the day of birth) of steptozotocin.
The diabetic rats used are eight weeks old. The animals are housed, from the day of birth to the day of the experiment, in an animal house at a regulated temperature of 21 to 22° C. and subjected to a fixed cycle of light (from 7 a.m. to 7 p.m.) and darkness (from 7p.m. to 7 a.m.). Their food consisted of a maintenance diet, and water and food were given “ad libitum”, with the exception of fasting two hours before the tests, during which period the food is removed (post-absorptive state).
The rats are treated orally for one (D1) or four (D4) days with the test product. Two hours after the final administration of the product and 30 minutes after anaesthetizing the animals with pentobarbital sodium (Nembutal®), a 300 μl blood sample is taken from the end of the tail.
By way of example, the results obtained are collated in the table below.

| Structure (SMILES) | INS. SEC. (percentage of insulin secretion) (insulin secretion) [%] | Percentage decrease in glycaemia at 200 mg/kg (N0STZ rats) [%] | melting point [°C] |
| --- | --- | --- | --- |
| COC(=O)c1cc(OCCCCl)c2cc(F)ccc2n1 [Compound 64, methyl 4-(3-chloropropoxy)-6-fluoroquinoline-2-carboxylate] | 179 |  |  |
| COc1ccc(C(=O)COc2cc(C(=O)O)nc3ccc(F)cc23)cc1OC [Compound 63, 4-[2-(3,4-dimethoxyphenyl)-2-oxoethoxy]-6-fluoroquinoline-2-carboxylic acid] | 192 |  |  |
| CCOc1cc(C(=O)O)nc2ccc(F)cc12 [Compound 1, 4-Ethoxy-6-fluoroquinoline-2-carboxylic acid] | 172 | −27 | 205 |
| O=C(O)c1cc(OCc2nc3ccccc3s2)c2cc(F)ccc2n1 [Compound 3, 4-(Benzothiazol-2-ylmethoxy)-6-fluoroquinoline-2-carboxylic acid] |  |  | > 250 |
| COC(=O)c1cc(OCC(C)CCl)c2cc(F)ccc2n1 (centres unmarked) [Compound 65, methyl 4-(3-chloro-2-methylpropoxy)-6-fluoroquinoline-2-carboxylate] | 161 |  |  |
| COc1ccc2nc(C(=O)[O-])cc(OCc3ccc(Br)cc3F)c2c1.[Na+] [Compound 4, 4-(4-Bromo-2-fluorobenzyloxy)-6-methoxyquinoline-2-carboxylic acid, sodium salt] |  |  | > 250 |
| O=C(O)c1cc(OC/C=C/COc2cc(C(=O)O)nc3ccc(F)cc23)c2cc(F)ccc2n1 [Compound 5, 4-({(E)-4-[(2-Carboxy-6-fluoro-4-quinolinyl)oxy]-2-butenyl}oxy)-6-fluoro-2-quinolinecarboxylic acid] |  | −17 | > 250 |
| N#Cc1ccccc1-c1ccc(COc2cc(C(=O)O)nc3ccc(F)cc23)cc1 [Compound 7, 4-(2′-Cyanobiphenyl-4-ylmethoxy)-6-fluoroquinoline-2-carboxylic acid] |  |  | > 250 |
| CC(C)=CCOc1cc(C(=O)O)nc2ccc(F)cc12 [Compound 6, 6-Fluoro-4-(3-methylbut-2-enyloxy)quinoline-2-carboxylic acid] |  | −10 | > 250 |
| O=C(O)c1cc(OCc2ccc(Br)cc2F)c2cc(F)ccc2n1 [Compound 2, 4-(4-Bromo-2-fluorobenzyloxy)-6-fluoroquinoline-2-carboxylic acid] |  |  | > 250 |
